The assay concerns mice. Put plainly: SmartCube in vivo neuropharmacological behavioral assay. The note with it: for minimal effective dose: Mus musculus, ip, 0.25 h, dose having 50% or more total activity in SmartCube, i.p., read-out: MED (minimal effective dose); for AD: antidepressant (percent probability) / AG: analgesic (percent probability) / AP: antipsychotic (percent probability) / AX: anxiolytic (percent probability) / CE: cognitive enhancer (percent probability) / HA: hallucinogenic (percent probability) / MS: mood stabilizer (percent probability) / PS (percent probability) / SD: sedative hypnotic (percent probability) / SE: side effects (percent probability) / UN: uncharacterized CNS activity (percent probability) / XG: anxiogenic (percent probability): SmartCube, i.p. 15 min before test, result at the MED. Here is the method: The compounds were evaluated for their CNS related properties (e.g., the treatment, prevention or diagnosis of CNS or CNS-related disorders and/or amelioration of symptoms) using neuropharmacological screening methods described in S. L. Roberts et al., Front. Neurosci. 2011, 5:103 (hereinafter referred to as “Roberts,” the contents of which are incorporated herein by reference in their entirety).
According to Roberts, intact systems are useful in detecting improvement in disease-relevant endpoints, because psychiatric diseases generally result from disorders of cell-cell communication or circuitry. The endpoints are typically behavioral in nature, often requiring human observation and interpretation. In order to test multiple compounds for behavioral effects relevant to neurological and psychiatric diseases and disorders, PsychoGenics, Inc. (Paramus, N.J. “PGI”) developed SmartCube®, an automated system in which behaviors of compound-treated mice are captured by digital video and analyzed with computer algorithms to facilitate testing of multiple compounds for behavioral effects relevant to psychiatric disease. (D. Brunner et al., Drug Discov. Today 2002, 7:S107-S112; Alexandrov et al., Eur. J. Pharmacol. 2015, 753:127-134; the contents of each of which are incorporated herein by reference in their entirety).
The SmartCube® system is described in Example 2.2 of U.S. Pat. No. 9,758,529 and Example 289 of WIPO Publication No. WO2018/023070, the contents of each of which are incorporated herein by reference in their entirety.
According to the present disclosure, compounds identified may be evaluated using the SmartCube® system. The results of such analysis correlate certain patterns or combinations of behaviors to CNS effects along a percent probability scale of 0-100 where zero (0) reflects the limit of quantitation (LOQ).
The compounds of the present disclosure were evaluated for their CNS related properties (e.g., the treatment, prevention or diagnosis of CNS or CNS-related disorders and/or amelioration of symptoms) using neuropharmacological screening methods described in S. L. Roberts et al., Front. Neurosci. 2011, 5:103 (hereinafter referred to as “Roberts,” the contents of which are incorporated herein by reference in their entirety).
The SmartCube® system described herein was utilized to compare the behavioral signature of a test compound to a database of behavioral signatures obtained using a large set of diverse reference compounds (including but not limited to antipsychotics, anxiolytics, antidepressants and bipolar disorder medicine), thereby predicting the neuropharmacological effects of a test compound by similarity to major classes of compounds. It produces an activity signature indicating the probability that the activity of the test compound at the administered dose matches a given class of neuropharmacological agents. The test compound is simultaneously compared against multiple classes of agents; thus, a separate probability is generated for each behavioral effect measured (such as but not limited to anxiolytic activity and analgesic activity).
The compounds of the present disclosure were dissolved in a mixture of Pharmasolve™ (N-methyl-2-pyrrolidone (NMP)) and were injected i.p. 15 min. before the behavioral test. For each compound, injections were administered at different dose levels (e.g., 0.3, 1, 3, 10 and 30 mg per kg (mpk)). A compound's minimal effective dose (MED; see Table 3) is a measure of the compound's potency. The MED was defined as the dose (in mpk) having 50% or more total activity in SmartCube®. For each behavioral effect measured, results at the MED are presented. CNS activities of the compounds were recorded (see Table 2). In Table 1, a key to the percent probabilities (probability ×100) for each behavioral effect (“X”) are defined provided, where LOQ is the limit of quantification.

Counter-ions that a name gives are not always drawn.

The minimal effective dose is the smallest amount tested that counted as effective. For the compound `CC(C)N1C2CCCC1c1ccccc12` [Compound 2, 12-(Propan-2-yl)-12-azatricyclo[6.3.1.0^2,7]dodeca-2,4,6-triene], the minimal effective dose fell in the range of 1 to 10 mg/kg, the “AD: antidepressant (percent probability)” value is recorded as “++ (5% ≤ X < 25%)”, the “AG: analgesic (percent probability)” value was “++ (5% ≤ X < 25%)” and the “AP: antipsychotic (percent probability)” value is given as “+ (LOQ ≤ X < 5%)”. Also, the “AX: anxiolytic (percent probability)” value was “+ (LOQ ≤ X < 5%)”, the “CE: cognitive enhancer (percent probability)” value is recorded as “+ (LOQ ≤ X < 5%)”, the “HA: hallucinogenic (percent probability)” value is “+ (LOQ ≤ X < 5%)” and the “MS: mood stabilizer (percent probability)” value (shortened to “MS … (percent probability)”) is on record as “+ (LOQ ≤ X < 5%)”. The “PS (percent probability)” value was “+ (LOQ ≤ X < 5%)”, the “SD: sedative hypnotic (percent probability)” value (from here on “SD … (percent probability)”) is “+ (LOQ ≤ X < 5%)”, the “SE: side effects (percent probability)” value is recorded as “+ (LOQ ≤ X < 5%)” and the “UN: uncharacterized CNS activity (percent probability)” value (“UN … (percent probability)” for short) is given as “+++ (25% ≤ X < 50%)”. Besides, the “XG: anxiogenic (percent probability)” value is “+ (LOQ ≤ X < 5%)”.
As to `CN1C2CCCC1c1ccccc12` [Compound 3, 12-Methyl-12-azatricyclo[6.3.1.0^2,7]dodeca-2,4,6-triene hydrochloride], the minimal effective dose lay within 10 to 30 mg/kg, the “AD: antidepressant (percent probability)” value was “+++ (25% ≤ X < 50%)”, the “AG: analgesic (percent probability)” value is given as “++ (5% ≤ X < 25%)” and the “AP: antipsychotic (percent probability)” value is given as “+ (LOQ ≤ X < 5%)”. For the same compound, the “AX: anxiolytic (percent probability)” value is recorded as “++ (5% ≤ X < 25%)”, the “CE: cognitive enhancer (percent probability)” value is “+ (LOQ ≤ X < 5%)”, the “HA: hallucinogenic (percent probability)” value is listed as “+ (LOQ ≤ X < 5%)” and the “MS … (percent probability)” value is reported as “+ (LOQ ≤ X < 5%)”. Further, the “PS (percent probability)” value was “+ (LOQ ≤ X < 5%)”, the “SD … (percent probability)” value is listed as “++ (5% ≤ X < 25%)”, the “SE: side effects (percent probability)” value was “++ (5% ≤ X < 25%)” and the “UN … (percent probability)” value was “++ (5% ≤ X < 25%)”. In addition, the “XG: anxiogenic (percent probability)” value is reported as “+ (LOQ ≤ X < 5%)”.
Turning to `c1ccc2c(c1)C1CCCC2N1C1CCCC1` [Compound 4, 12-Cyclopentyl-12-azatricyclo[6.3.1.0^2,7]dodeca-2,4,6-triene hydrochloride], the minimal effective dose was 1 to 10 mg/kg, the “AD: antidepressant (percent probability)” value is “+++ (25% ≤ X < 50%)”, the “AG: analgesic (percent probability)” value is reported as “++ (5% ≤ X < 25%)” and the “AP: antipsychotic (percent probability)” value is listed as “+ (LOQ ≤ X < 5%)”. Also, the “AX: anxiolytic (percent probability)” value is “++ (5% ≤ X < 25%)”, the “CE: cognitive enhancer (percent probability)” value is on record as “+ (LOQ ≤ X < 5%)”, the “HA: hallucinogenic (percent probability)” value is “+ (LOQ ≤ X < 5%)” and the “MS … (percent probability)” value is recorded as “+ (LOQ ≤ X < 5%)”. Moreover, the “PS (percent probability)” value is on record as “++ (5% ≤ X < 25%)”, the “SD … (percent probability)” value is reported as “+ (LOQ ≤ X < 5%)”, the “SE: side effects (percent probability)” value is “+ (LOQ ≤ X < 5%)” and the “UN … (percent probability)” value is listed as “+ (LOQ ≤ X < 5%)”. For the same compound, the “XG: anxiogenic (percent probability)” value was “+ (LOQ ≤ X < 5%)”.
For `c1ccc(CCN2C3CCCC2c2ccccc23)cc1` [Compound 5, 12-(2-Phenylethyl)-12-azatricyclo[6.3.1.0^2,7]dodeca-2,4,6-triene], the minimal effective dose lay in the range of 10 to 30 mg/kg, the “AD: antidepressant (percent probability)” value was “++ (5% ≤ X < 25%)”, the “AG: analgesic (percent probability)” value was “+ (LOQ ≤ X < 5%)” and the “AP: antipsychotic (percent probability)” value was “++ (5% ≤ X < 25%)”. In addition, the “AX: anxiolytic (percent probability)” value is recorded as “++ (5% ≤ X < 25%)”, the “CE: cognitive enhancer (percent probability)” value is listed as “+ (LOQ ≤ X < 5%)”, the “HA: hallucinogenic (percent probability)” value is “+ (LOQ ≤ X < 5%)” and the “MS … (percent probability)” value is “+ (LOQ ≤ X < 5%)”. Further, the “PS (percent probability)” value was “+ (LOQ ≤ X < 5%)”, the “SD … (percent probability)” value is given as “+ (LOQ ≤ X < 5%)”, the “SE: side effects (percent probability)” value was “+ (LOQ ≤ X < 5%)” and the “UN … (percent probability)” value is recorded as “+++ (25% ≤ X < 50%)”. For the same compound, the “XG: anxiogenic (percent probability)” value is “+ (LOQ ≤ X < 5%)”.
Turning to `CCN1C2CCCC1c1ccccc12` [Compound 6, 12-Ethyl-12-azatricyclo[6.3.1.0,]dodeca-2,4,6-triene hydrochloride], the minimal effective dose was 10 to 30 mg/kg, the “AD: antidepressant (percent probability)” value is listed as “+++ (25% ≤ X < 50%)”, the “AG: analgesic (percent probability)” value is given as “++ (5% ≤ X < 25%)” and the “AP: antipsychotic (percent probability)” value is “+ (LOQ ≤ X < 5%)”. Besides, the “AX: anxiolytic (percent probability)” value is “++ (5% ≤ X < 25%)”, the “CE: cognitive enhancer (percent probability)” value was “+ (LOQ ≤ X < 5%)”, the “HA: hallucinogenic (percent probability)” value is given as “+ (LOQ ≤ X < 5%)” and the “MS … (percent probability)” value is on record as “+ (LOQ ≤ X < 5%)”. In addition, the “PS (percent probability)” value is on record as “+ (LOQ ≤ X < 5%)”, the “SD … (percent probability)” value is “+ (LOQ ≤ X < 5%)”, the “SE: side effects (percent probability)” value is recorded as “+ (LOQ ≤ X < 5%)” and the “UN … (percent probability)” value was “+ (LOQ ≤ X < 5%)”. The “XG: anxiogenic (percent probability)” value is listed as “+ (LOQ ≤ X < 5%)”.
In the case of `CCCN1C2CCCC1c1ccccc12` [Compound 7, 12-Propyl-12-azatricyclo[6.3.1.0^2,7]dodeca-2,4,6-triene hydrochloride], the minimal effective dose lay within 10 to 30 mg/kg, the “AD: antidepressant (percent probability)” value was “++ (5% ≤ X < 25%)”, the “AG: analgesic (percent probability)” value is listed as “+++ (25% ≤ X < 50%)” and the “AP: antipsychotic (percent probability)” value is listed as “+ (LOQ ≤ X < 5%)”. The “AX: anxiolytic (percent probability)” value was “++ (5% ≤ X < 25%)”, the “CE: cognitive enhancer (percent probability)” value is “+ (LOQ ≤ X < 5%)”, the “HA: hallucinogenic (percent probability)” value is recorded as “+ (LOQ ≤ X < 5%)” and the “MS … (percent probability)” value is “+ (LOQ ≤ X < 5%)”. In addition, the “PS (percent probability)” value is “++ (5% ≤ X < 25%)”, the “SD … (percent probability)” value was “+ (LOQ ≤ X < 5%)”, the “SE: side effects (percent probability)” value is given as “+ (LOQ ≤ X < 5%)” and the “UN … (percent probability)” value is “+ (LOQ ≤ X < 5%)”. For the same compound, the “XG: anxiogenic (percent probability)” value is on record as “+ (LOQ ≤ X < 5%)”.
`CC(C)CN1C2CCCC1c1ccccc12` [Compound 8, 12-(2-Methylpropyl)-12-azatricyclo[6.3.1.0^2,7]dodeca-2,4,6-triene]: the minimal effective dose lay in the range of 10 to 30 mg/kg, the “AD: antidepressant (percent probability)” value is “++++ (50% ≤ X < 100%)”, the “AG: analgesic (percent probability)” value is recorded as “+ (LOQ ≤ X < 5%)” and the “AP: antipsychotic (percent probability)” value is “+ (LOQ ≤ X < 5%)”. The “AX: anxiolytic (percent probability)” value is on record as “++ (5% ≤ X < 25%)”, the “CE: cognitive enhancer (percent probability)” value is on record as “+ (LOQ ≤ X < 5%)”, the “HA: hallucinogenic (percent probability)” value is “+ (LOQ ≤ X < 5%)” and the “MS … (percent probability)” value was “+ (LOQ ≤ X < 5%)”. Further, the “PS (percent probability)” value is reported as “++ (5% ≤ X < 25%)”, the “SD … (percent probability)” value is reported as “+ (LOQ ≤ X < 5%)”, the “SE: side effects (percent probability)” value is reported as “+ (LOQ ≤ X < 5%)” and the “UN … (percent probability)” value is on record as “+ (LOQ ≤ X < 5%)”. For the same compound, the “XG: anxiogenic (percent probability)” value was “+ (LOQ ≤ X < 5%)”.

The values are drawn from patent US20230116114A1, “COMPOUNDS AND COMPOSITIONS FOR TREATING CNS DISORDERS” (Blue Oak Pharmaceuticals, Inc., priority 2020, published 2023).
